A short description of data set [1]: Evaluation of pigment dispersibility (wetting point / flowing point). The format is physicochemical. Particulars: difference between wetting point and flowing point; liquid paraffin added to TiO2 containing 10% by weight of oily material. On the procedure:
With respect to various oily materials including some N-acylamino acid esters of the present invention, powdery compositions formed by blending each oily material with a powder pigment of titanium dioxide (TiO2) were evaluated or examined from various aspects. This will be described in detail below.
The minimum value in terms of parts by weight in which the powder was put together was defined as wetting point. […] Liquid paraffin was further added thereto from the wetting point, and the minimum numeral of parts by weight of the liquid paraffin in which the mixture came to show a fluidity was defined as flowing point.
The smaller the difference between the wetting point and the flowing point, the better the dispersibility (“Science of Fragrance”, published by Fragrance Journal in 1990, p. 390). Accordingly, the index of pigment dispersibility was evaluated in terms of the difference between the wetting point and the flowing point. That is, in Table 47, when the difference between the wetting point and the flowing point was up to 35, it was rated as ∘∘; when the difference was between 36 and 45, it was rated as ∘; and when the difference was between 46 and 55, it was rated as Δ; and when the difference was 56 or more, it was rated as ×.

Data set [2] can be described thus: Examination of solubility of a UV-A absorbent in various oily materials. The conditions noted are these: amount of “Soft Shade DH” dissolved in 100 g of the oily material.
The conditions of data set [3]: Jap. pat. Publn. (kokoku); cited from earlier work.
For data set [4] the following is noted: solids; cited from earlier work.

Regarding `CCCCCCCCCCCCCC(=O)OC(C)C` [isopropyl myristate], the Pigment dispersibility result in data set [1] was “Δ (when the difference was between 46 and 55, it was rated as Δ)”. Besides, in data set [2], the Solubility result is “X (The amount of the compound dissolved in 100 g of the oily material is less than 5 g.)”. With `CCCCCCCCCCCC(=O)N(C)CC(=O)OCC(CCCCCCCC)CCCCCCCCCC` (stereo not shown) [Reference Synthesis Example 2, N-lauroylsarcosine octyl dodecyl ester], in data set [2], the Solubility entry is “X (The amount of the compound dissolved in 100 g of the oily material is less than 5 g.)”. For `CCCCC(CC)C(=O)N(C)CCC(=O)OC` (stereo not drawn) [N-2-ethylhexanoyl-N-methyl-β-alanine.methyl ester], the “compatibility with an oily solvent” value in data set [3] is listed as “poor”. `CCCCCCCCCCCC(=O)N[C@@H](CCC(=O)OCC(CCCCCCCC)CCCCCCCCCC)C(=O)OCC(CCCCCCCC)CCCCCCCCCC` (stereo partly shown) [lauroylglutamic acid octyldodecyl diester]: the Pigment dispersibility result in data set [1] is “Δ (when the difference was between 46 and 55, it was rated as Δ)”. Regarding `CCCCCCCCCCCCCCCCCC(=O)OCC(O)CO` (stereo not shown) [glycerol stearate], the Solubility result in data set [2] is “X (The amount of the compound dissolved in 100 g of the oily material is less than 5 g.)”. Turning to `CCCCCCCCCCCC(=O)N(C)CC(=O)OCCCCCCCCCCCCCCCC(C)C` [Reference Synthesis Example 1, N-lauroylsarcosine isostearyl ester], the Pigment dispersibility result in data set [1] is “Δ (when the difference was between 46 and 55, it was rated as Δ)”. Besides, the Solubility entry in data set [2] was “X (The amount of the compound dissolved in 100 g of the oily material is less than 5 g.)”. On to `COc1ccc(C(=O)CC(=O)c2ccc(C(C)(C)C)cc2)cc1` [4-t-butyl-4′-methoxybenzoylmethane], for which the “solubility in water and oil” value in data set [4] was “sparingly soluble in water and oil”. In the case of `CCCCCCCCCCCC(=O)N(C)CCC(=O)OC(C)C` [Synthesis Example 15, N-lauroyl-N-methyl-β-alanine isopropyl ester], the Pigment dispersibility result in data set [1] is “◯◯”. Besides, in data set [2], the Solubility result is “◯ (It is at least 10 g.)”. In the case of `CCCCCCCCCCCC(=O)N(C)CC(=O)OC(C)C` [Synthesis Example 14, N-laurolysarcosine isopropyl ester], the Pigment dispersibility entry in data set [1] is given as “◯◯”. In addition, the Solubility result in data set [2] is given as “◯ (It is at least 10 g.)”.
